According to patent US20210052566A1, “METHODS FOR TREATING HEPATITIS B VIRUS (HBV) INFECTION” (INSERM (INSTITUT NATIONAL DE LA SANTÉ ET DE LA RECHERCHE …, priority 2018, published 2021):

Test system: HBV genotype C
Experiment: De novo establishment of HBV infection/cccDNA in naive dHepaRG, genotype C (treatment before and during inoculation)
Format: cell-based, Hepatitis B virus
Experimental: FIG. 1. Experimental outlines. Treatment schemes: (a) Treatments in pre-infection: dHepaRG cells were treated for 24 h (at day −1) with 100 nM of PreS1 peptide (PreS1-pep) or 10 μM of 1C8, or untreated (NT). At day 0, cells were inoculated with HBV (MOI=250) or with HDV (MOI=25) in the presence of drugs for 24 h. For the tenofovir control (TDF at 10 μM), cells were treated at day 1 and 4 post-infection. Supernatant and cells were harvested at day 7 post-infection. (b) Treatments in post-infection: dHepaRG cells were inoculated with HBV (MOI=250) or with HDV (MOI=25). At days 4, 7 and 9 post infection, cells were treated with TDF 10 μM, lamivudine (3TC) at 10 μM, 1C8 10 μM or untreated (NT). […]
FIG. 8. […] B) HBs and HBe secreted antigens in supernatant were quantified by ELISA, whereas HBV DNA contained in virions was quantified by qPCR after viral nucleic acid extraction from supernatant. […] Statistics were done by two-tailed Mann-Whitney test, with following significativity: *P<0.05, **P<0.01, ***P<0.001, ****P<0.0001. nd=not determined […]
From cell culture supernatants, secreted HBe and HBs antigens were quantified by ELISA, using a chemiluminescence immunoassay kit (Autobio, China) following manufacturer's instructions. […]
A HBV standard was used for quantification of extracellular viral DNA and RNA. […] CccDNA was normalized to β-Globin quantification. […]

`Cn1ccc(=O)c(C(=O)Nc2nsc3ccc([N+](=O)[O-])cc23)c1` [1C8, 4-pyridinonebenzisothiazole carboxamide] was tested, and the inhibition at 10 µM (Hepatitis B virus, dHepaRG treated before and during HBV inoculation) was 70% and the “other viral markers (intracellular RNAs, HBeAg, HBsAg), genotype C” value (dHepaRG treated before and during inoculation, 10 microM) was “also reduced”.
